# Experimental data taken from the supplement of paper PMC11061612.
# Key:
# Assay in all cases: Bliss excess, mean over the matrix (fraction); higher = more synergy
# [1] = test system: EN (Endometrial Carcinoma)
# Procedure, shortened: (§1)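 Bliss excess equals the observed combination effect minus the expected value EA + EB − EA·EB, where EA and EB are the effects of each agent alone. Combination Emax is the second-highest inhibition within the matrix. Inhibition was scaled from CellTiter-Glo 2.0 luminescence, with 0 set by vehicle wells and 1 by blank wells, after 72 hours of two-drug dosing of cells plated in 1536-well plates.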
# [2] = test system: HO-1-u-1 (Oral Cavity Carcinoma)
# Procedure, shortened: as §1
# [3] = test system: K5 (Thyroid Gland Carcinoma)
# Procedure, shortened: as §1
# NCI-H2461 (Mesothelioma) = test system: NCI-H2461 (Mesothelioma)
# Procedure, shortened: as §1
# NCI-H2795 (Mesothelioma) = test system: NCI-H2795 (Mesothelioma)
# Procedure, shortened: as §1
# [4] = test system: PCI-30 (Head and Neck Carcinoma)
# Procedure, shortened: as §1
# [5] = test system: SW1116 (Colorectal Carcinoma)
# Procedure, shortened: as §1
# [6] = test system: SW1271 (Small Cell Lung Carcinoma)
# Procedure, shortened: as §1
Structure (SMILES),Bliss excess [1],Bliss excess [2],Bliss excess [3],Bliss excess (NCI-H2461 (Mesothelioma)),Bliss excess (NCI-H2795 (Mesothelioma)),Bliss excess [4],Bliss excess [5],Bliss excess [6]
"COc1nnc2ccc(N3CCC(c4ccc(OCCN5CCN(C)C(=O)[C@H]5C)cc4)CC3)nn12 [AZD5153] + C[C@@H]1COCCN1C2=NC(=NC(=C2)C3(CC3)[S@](=N)(=O)C)C4=C5C=CNC5=NC=C4 [AZD6738] (first compound max 1 µM, 7x7, partner max 10 µM)",0.0191,-0.0146,-0.0057,-0.0571,0.0037,-0.014,-0.0165,-0.0204
"CS(=O)(=O)CCNCc1ccc(-c2ccc3ncnc(Nc4ccc(OCc5cccc(F)c5)c(Cl)c4)c3c2)o1 [Lapatinib] + Cn1cnc2c(F)c(Nc3ccc(Br)cc3Cl)c(C(=O)NOCCO)cc21 [Selumetinib] (first compound max 10 µM, 7x7, partner max 10 µM)",-0.0829,-0.0047,-0.022,-0.0492,-0.0488,0.0027,0.0744,-0.0167
"COc1nnc2ccc(N3CCC(c4ccc(OCCN5CCN(C)C(=O)[C@H]5C)cc4)CC3)nn12 [AZD5153] + CCN(CCO)CCCOc1ccc2c(Nc3cc(CC(=O)Nc4cccc(F)c4)[nH]n3)ncnc2c1 [AZD2811] (first compound max 1 µM, 7x7, partner max 1 µM)",-0.0918,-0.121,-0.0485,-0.0421,-0.0807,-0.0568,-0.0632,-0.0234
"CC1(C)CCC(CN2CCN(c3ccc(C(=O)NS(=O)(=O)c4ccc(NCC5CCOCC5)c([N+](=O)[O-])c4)c(Oc4cnc5[nH]ccc5c4)c3)CC2)=C(c2ccc(Cl)cc2)C1 [Venetoclax] + Cc1cc2ncnn2cc1Nc1ncc2c(n1)n(C1CCOCC1)c(=O)n2C [AZD7648] (first compound max 1 µM, 7x7, partner max 10 µM)",-0.0233,-0.0307,-0.103,-0.0954,-0.0113,-0.0545,-0.0232,-0.115
"CS(=O)(=O)CCNCc1ccc(-c2ccc3ncnc(Nc4ccc(OCc5cccc(F)c5)c(Cl)c4)c3c2)o1 [Lapatinib] + NC1(c2ccc(-c3nc4ccn5c(=O)[nH]nc5c4cc3-c3ccccc3)cc2)CCC1 [MK-2206] (first compound max 10 µM, 7x7, partner max 10 µM)",-0.0024,0.0235,0.0293,-0.0423,0.0513,-0.0005,-0.01,0.0083
"Cc1nc(Nc2ncc(C(=O)Nc3c(C)cccc3Cl)s2)cc(N2CCN(CCO)CC2)n1 [Dasatinib] + CC(=O)Nc1cccc(-n2c(=O)n(C3CC3)c(=O)c3c(Nc4ccc(I)cc4F)n(C)c(=O)c(C)c32)c1 [Trametinib] (first compound max 2 µM, 7x7, partner max 1 µM)",-0.0056,-0.0219,0.0175,-0.0384,-0.0513,-0.0727,0.0459,0.119
"CC1(C)CCC(CN2CCN(c3ccc(C(=O)NS(=O)(=O)c4ccc(NCC5CCOCC5)c([N+](=O)[O-])c4)c(Oc4cnc5[nH]ccc5c4)c3)CC2)=C(c2ccc(Cl)cc2)C1 [Venetoclax] + C[C@@H]1COCCN1C2=NC(=NC(=C2)C3(CC3)[S@](=N)(=O)C)C4=C5C=CNC5=NC=C4 [AZD6738] (first compound max 1 µM, 7x7, partner max 10 µM)",-0.0605,0.0026,-0.0758,-0.026,-0.0578,-0.0076,-0.0234,-0.0497
"NC1(C(=O)N[C@@H](CCO)c2ccc(Cl)cc2)CCN(c2ncnc3[nH]ccc23)CC1 [Capivasertib] + CC(C)n1c(=O)n(C)c2cnc3cc(F)c(-c4ccc(OCCCN5CCCCC5)nc4)cc3c21 [AZD1390] (first compound max 10 µM, 7x7, partner max 0.3 µM)",-0.0625,-0.0332,-0.0539,-0.0579,-0.0483,-0.0488,-0.0335,-0.0347
"Cc1nc(-c2cn3c(n2)-c2ccc(-c4cnn(C(C)(C)C(N)=O)c4)cc2OCC3)n(C(C)C)n1 [Taselisib] + O=C(Nc1ccc2[nH]nc(-c3ccncc3)c2c1)[C@@H]1CCN(CC(=O)N2CCN(c3ccc(-c4ncccn4)cc3)CC2)C1 [SCH772984] (first compound max 10 µM, 7x7, partner max 5 µM)",-0.034,0.0064,0.0419,-0.012,0.0704,0.023,0.0831,-0.0096
"CC(=O)c1c(C)c2cnc(Nc3ccc(N4CCNCC4)cn3)nc2n(C2CCCC2)c1=O [Palbociclib] + CC1(C)CCC(CN2CCN(c3ccc(C(=O)NS(=O)(=O)c4ccc(NCC5CCOCC5)c([N+](=O)[O-])c4)c(Oc4cnc5[nH]ccc5c4)c3)CC2)=C(c2ccc(Cl)cc2)C1 [Venetoclax] (first compound max 10 µM, 7x7, partner max 1 µM)",-0.0405,-0.0121,0.0216,-0.0712,-0.0365,-0.0216,-0.0435,-0.0513
"C[C@@H](c1ccc2nccn2c1)n1nnc2ncc(-c3cnn(C)c3)nc21 [Savolitinib] + CC1(C)CCC(CN2CCN(c3ccc(C(=O)NS(=O)(=O)c4ccc(NCC5CCOCC5)c([N+](=O)[O-])c4)c(Oc4cnc5[nH]ccc5c4)c3)CC2)=C(c2ccc(Cl)cc2)C1 [Venetoclax] (first compound max 1 µM, 7x7, partner max 1 µM)",-0.0643,-0.039,-0.0374,-0.0641,0.0032,-0.0899,-0.0595,-0.0436
